This note sets out measurements from patent US4450269A, “Mono-5-substituted-3-chloro-4H-1,2,6-thiadiazin-4-one antifungal agents” (FMC Corporation, priority 1980, dated 1984).

Test [1] relates to Pyricularia oryzae. Briefly: microbe, parasite or virus in culture. The format is cell-based. As to conditions: for Percent Fungus Growth Inhibition: PO, 72 hours; for inhibition at 5 ppm / inhibition at 10 ppm / inhibition at 20 ppm / inhibition at 40 ppm: Pyricularia oryzae, 72 h; for inhibition at 5 ppm: read-out: Percent Fungus Growth Inhibition, PO, 5 ppm, 72 hours; for inhibition at 10 ppm: read-out: Percent Fungus Growth Inhibition, PO, 10 ppm, 72 hours; for inhibition at 20 ppm: read-out: Percent Fungus Growth Inhibition, PO, 20 ppm, 72 hours; for inhibition at 40 ppm: read-out: Percent Fungus Growth Inhibition, PO, 40 ppm, 72 hours.

For the next test, the system named is Phytophthora infestans. In words: whole plant or invertebrate. The test is classed as in vivo. As to conditions: for Percent Disease Control, foliar, tomato late blight: 150 ppm, protective; for pest or weed control at 150 ppm: Phytophthora infestans, in Solanum lycopersicum, foliar, read-out: Percent Disease Control, foliar, tomato late blight, 150 ppm, protective.

Test [2] has as its system Pyricularia oryzae. Briefly: whole plant or invertebrate. The format is in vivo. As to conditions: for Percent Disease Control, curative, rice blast: 150 ppm, 24 hours after inoculation; for pest or weed control at 150 ppm: Pyricularia oryzae, foliar, 24 h, read-out: Percent Disease Control, curative, rice blast, 150 ppm, 24 hours after inoculation.

As usually defined, the inhibition is how much of the control response was suppressed.

On to “3-chloro-5-(bromophenoxy)-4H-1,2,6-thiadiazin-4-one [Compound 33]”, for which the “Percent Fungus Growth Inhibition” value in the test with Pyricularia oryzae [1] (5 ppm) was found to be 53%; with Pyricularia oryzae [1] (10 ppm) it was 68%; in the test with Pyricularia oryzae [1] (20 ppm), 100%; in the test with Pyricularia oryzae [1] (40 ppm), 100%. In the test with Phytophthora infestans, the “Percent Disease Control, foliar, tomato late blight” value amounted to 0%. Also, the “Percent Disease Control, curative, rice blast” value in the test with Pyricularia oryzae [2] is 0%.

As for “3-chloro-5-[methylaminocarbonyloxy)phenoxyl]-4H-1,2,6-thiadiazin-4-one [Compound 36]”, the “Percent Fungus Growth Inhibition” value turned out to be 31% in the test with Pyricularia oryzae [1] (5 ppm), 69% in the test with Pyricularia oryzae [1] (10 ppm), 100% in the test with Pyricularia oryzae [1] (20 ppm) and 100% with Pyricularia oryzae [1] (40 ppm). Besides, the “Percent Disease Control, foliar, tomato late blight” value in the test with Phytophthora infestans was determined as 90%. Also, the “Percent Disease Control, curative, rice blast” value in the test on Pyricularia oryzae [2] is 95%.

With `O=c1c(Cl)nsnc1Oc1ccccc1` [Compound 2, 3-chloro-5-phenoxy-4H--1,2,6-thiadiazin-4-one], in the test with Pyricularia oryzae [1], the inhibition at 5 ppm was 22%, the inhibition at 10 ppm was 26%, the inhibition at 20 ppm worked out at 56% and the inhibition at 40 ppm came to 100%. In addition, the pest or weed control at 150 ppm with Phytophthora infestans is 0%. Also, in the test with Pyricularia oryzae [2], the pest or weed control at 150 ppm is 0%.

With `Cc1ccc(Oc2nsnc(Cl)c2=O)cc1` [Compound 3, 3-chloro-5-(4-methylphenoxy)-4H--1,2,6-thiadiazin-4-one], in the test on Pyricularia oryzae [1], the inhibition at 5 ppm was 19%, the inhibition at 10 ppm turned out to be 41%, the inhibition at 20 ppm worked out at 41% and the inhibition at 40 ppm is 93%. Besides, the pest or weed control at 150 ppm in the test with Phytophthora infestans is 50%. In addition, the pest or weed control at 150 ppm in the test on Pyricularia oryzae [2] turned out to be 0%.

In the case of `CC(C)(C)c1ccc(Oc2nsnc(Cl)c2=O)cc1` [Compound 4, 3-chloro-5-(4-tert-butylphnoxy)-4H--1,2,6-thiadiazin-4-one], in the test on Pyricularia oryzae [1], the inhibition at 5 ppm was 0%, the inhibition at 10 ppm came out at 0%, the inhibition at 20 ppm stood at 0% and the inhibition at 40 ppm was 19%. In addition, the pest or weed control at 150 ppm with Phytophthora infestans is 0%. The pest or weed control at 150 ppm in the test on Pyricularia oryzae [2] worked out at 95%.

Turning to `COc1ccc(Oc2nsnc(Cl)c2=O)cc1` [Compound 5, 3-chloro-5-(4-methoxyphenoxy)4H--1,2,6-thiadiazin-4-one], in the test on Pyricularia oryzae [1], the inhibition at 5 ppm was 4%, the inhibition at 10 ppm stood at 22%, the inhibition at 20 ppm was determined as 48% and the inhibition at 40 ppm was 63%. In the test on Phytophthora infestans, the pest or weed control at 150 ppm is 0%. In addition, the pest or weed control at 150 ppm in the test with Pyricularia oryzae [2] was determined as 75%.

Regarding `CCCCOc1ccc(Oc2nsnc(Cl)c2=O)cc1` [Compound 6, 3-chloro-5-(4-n-butoxyphenoxy)-4H--1,2,6-thiadiazin-4-one], in the test with Pyricularia oryzae [1], the inhibition at 5 ppm stood at 15%, the inhibition at 10 ppm is 0%, the inhibition at 20 ppm worked out at 19% and the inhibition at 40 ppm was found to be 19%. Moreover, the pest or weed control at 150 ppm with Phytophthora infestans turned out to be 0%. Further, in the test on Pyricularia oryzae [2], the pest or weed control at 150 ppm came to 0%.

Consider `CCOC(=O)c1ccc(Oc2nsnc(Cl)c2=O)cc1` [Compound 7, 3-chloro-5-(4-ethoxycarbonylphenoxy)-4H--1,2,6-thiadiazin-4-one], for which, in the test with Pyricularia oryzae [1], the inhibition at 5 ppm turned out to be 19%, the inhibition at 10 ppm is 65%, the inhibition at 20 ppm came to 77% and the inhibition at 40 ppm came out at 81%. The pest or weed control at 150 ppm in the test with Phytophthora infestans was found to be 100%. Further, the pest or weed control at 150 ppm in the test on Pyricularia oryzae [2] was 0%.

In the case of `CC(=O)Nc1ccc(Oc2nsnc(Cl)c2=O)cc1` [Compound 8, 5-(4-acetylaminophenoxy)-3-chloro-4H--1,2,6-thiadiazin-4-one], in the test on Pyricularia oryzae [1], the inhibition at 5 ppm came to 23%, the inhibition at 10 ppm was determined as 0%, the inhibition at 20 ppm stood at 48% and the inhibition at 40 ppm came to 74%. In the test with Phytophthora infestans, the pest or weed control at 150 ppm amounted to 90%. Further, in the test with Pyricularia oryzae [2], the pest or weed control at 150 ppm amounted to 0%.

As for `O=c1c(Cl)nsnc1Oc1ccc([N+](=O)[O-])cc1` [Compound 9, 3-chloro-5-(4-nitrophenoxy)-4H--1,2,6-thiadiazin-4-one], in the test on Pyricularia oryzae [1], the inhibition at 5 ppm was determined as 22%, the inhibition at 10 ppm was found to be 48%, the inhibition at 20 ppm stood at 70% and the inhibition at 40 ppm was 93%. Further, in the test with Phytophthora infestans, the pest or weed control at 150 ppm was 90%. Besides, the pest or weed control at 150 ppm in the test on Pyricularia oryzae [2] is 90%.

For `N#Cc1ccc(Oc2nsnc(Cl)c2=O)cc1` [Compound 10, 3-chloro-5-(4-cyanophenoxy)-4H--1,2,6-thiadiazin-4-one], in the test on Pyricularia oryzae [1], the inhibition at 5 ppm was determined as 19%, the inhibition at 10 ppm was 19%, the inhibition at 20 ppm was determined as 58% and the inhibition at 40 ppm was 77%. Further, the pest or weed control at 150 ppm in the test on Phytophthora infestans worked out at 100%. For the same molecule, the pest or weed control at 150 ppm in the test with Pyricularia oryzae [2] was 0%.

Consider `O=c1c(Cl)nsnc1Oc1ccc(F)cc1` [Compound 11, 3-chloro-5-(4-fluorophenoxy)-4H--1,2,6-thiadiazin-4-one], for which, in the test on Pyricularia oryzae [1], the inhibition at 5 ppm was determined as 15%, the inhibition at 10 ppm is 38%, the inhibition at 20 ppm is 54% and the inhibition at 40 ppm was 62%. In addition, in the test on Phytophthora infestans, the pest or weed control at 150 ppm was 100%. Further, the pest or weed control at 150 ppm in the test with Pyricularia oryzae [2] was 0%.

On to `O=c1c(Cl)nsnc1Oc1ccc(Cl)cc1` [Compound 12, 3-chloro-5-(4-chlorophenoxy)-4H--1,2,6-thiadiazin-4-one], for which, in the test with Pyricularia oryzae [1], the inhibition at 5 ppm worked out at 19%, the inhibition at 10 ppm came out at 30%, the inhibition at 20 ppm was 59% and the inhibition at 40 ppm came out at 85%. The pest or weed control at 150 ppm in the test with Phytophthora infestans turned out to be 100%. For the same molecule, in the test on Pyricularia oryzae [2], the pest or weed control at 150 ppm was 75%.

With `O=c1c(Cl)nsnc1Oc1cccc(Cl)c1` [Compound 13, 3-chloro-5-(3-chlorophenoxy)-4H--1,2,6-thiadiazin-4-one], in the test with Pyricularia oryzae [1], the inhibition at 5 ppm amounted to 44%, the inhibition at 10 ppm came out at 42%, the inhibition at 20 ppm was 74% and the inhibition at 40 ppm is 100%. Further, the pest or weed control at 150 ppm in the test with Phytophthora infestans amounted to 98%. Also, in the test on Pyricularia oryzae [2], the pest or weed control at 150 ppm was determined as 0%.

With `O=c1c(Cl)nsnc1Oc1ccccc1Cl` [Compound 14, 3-chloro-5-(2-chlorophenoxy)-4H--1,2,6-thiadiazin-4-one], in the test on Pyricularia oryzae [1], the inhibition at 5 ppm amounted to 23%, the inhibition at 10 ppm is 26%, the inhibition at 20 ppm was determined as 55% and the inhibition at 40 ppm is 100%. Further, the pest or weed control at 150 ppm in the test on Phytophthora infestans was 0%. Moreover, the pest or weed control at 150 ppm in the test on Pyricularia oryzae [2] is 0%.

On to `O=c1c(Cl)nsnc1Oc1ccc(Br)cc1` [Compound 15, 3-chloro-5-(4-bromophenoxy)-4H--1,2,6-thiadiazin-4-one], for which, in the test with Pyricularia oryzae [1], the inhibition at 5 ppm came out at 12%, the inhibition at 10 ppm is 19%, the inhibition at 20 ppm was determined as 50% and the inhibition at 40 ppm amounted to 58%. In addition, in the test on Phytophthora infestans, the pest or weed control at 150 ppm came to 100%. For the same molecule, the pest or weed control at 150 ppm in the test on Pyricularia oryzae [2] was 95%.

Turning to `O=c1c(Cl)nsnc1Oc1ccc(Cl)c(Cl)c1` [Compound 16, 3-chloro-5-(3,4-dichlorophenoxy)-4H--1,2,6-thiadiazin-4-one], in the test with Pyricularia oryzae [1], the inhibition at 5 ppm came to 41%, the inhibition at 10 ppm was 48%, the inhibition at 20 ppm is 48% and the inhibition at 40 ppm was found to be 41%. Also, the pest or weed control at 150 ppm in the test on Phytophthora infestans was 0%. The pest or weed control at 150 ppm with Pyricularia oryzae [2] amounted to 90%.

Turning to `O=c1c(Cl)nsnc1Oc1ccc(Cl)cc1Cl` [Compound 17, 3-chloro-5-(2,4-dichlorophenoxy)-4H--1,2,6-thiadiazin-4-one], in the test with Pyricularia oryzae [1], the inhibition at 5 ppm stood at 29%, the inhibition at 10 ppm is 48%, the inhibition at 20 ppm was 29% and the inhibition at 40 ppm turned out to be 71%. Besides, the pest or weed control at 150 ppm in the test with Phytophthora infestans was found to be 100%. The pest or weed control at 150 ppm with Pyricularia oryzae [2] was found to be 0%.

For `O=c1c(Cl)nsnc1Oc1c(Cl)cccc1Cl` [Compound 18, 3-chloro-5-(2,6-dichlorophenoxy)-4H--1,2,6-thiadiazin-4-one], in the test on Pyricularia oryzae [1], the inhibition at 5 ppm came to 26%, the inhibition at 10 ppm amounted to 32%, the inhibition at 20 ppm is 48% and the inhibition at 40 ppm was found to be 48%. For the same molecule, in the test on Phytophthora infestans, the pest or weed control at 150 ppm was found to be 50%. The pest or weed control at 150 ppm in the test on Pyricularia oryzae [2] stood at 0%.

With `O=c1c(Cl)nsnc1Oc1cccc(Cl)c1Cl` [Compound 19, 3-chloro-5-(2,3-dichlorophenoxy)-4H--1,2,6-thiadiazin-4-one], in the test on Pyricularia oryzae [1], the inhibition at 5 ppm is 39%, the inhibition at 10 ppm was 48%, the inhibition at 20 ppm was 68% and the inhibition at 40 ppm was found to be 87%. Further, the pest or weed control at 150 ppm in the test on Phytophthora infestans is 0%. Moreover, the pest or weed control at 150 ppm in the test with Pyricularia oryzae [2] turned out to be 0%.

Take `O=c1c(Cl)nsnc1Oc1cc(Cl)cc(Cl)c1` [Compound 20, 3-chloro-5-(3,5-dichlorophenoxy)-4H--1,2,6-thiadiazin-4-one]: in the test on Pyricularia oryzae [1], the inhibition at 5 ppm was determined as 48%, the inhibition at 10 ppm came to 74%, the inhibition at 20 ppm came to 68% and the inhibition at 40 ppm amounted to 74%. Moreover, in the test on Phytophthora infestans, the pest or weed control at 150 ppm was determined as 0%. Besides, the pest or weed control at 150 ppm with Pyricularia oryzae [2] was determined as 0%.

With `Cc1cccc(Oc2nsnc(Cl)c2=O)c1` [Compound 21, 3-chloro-5-(3-methylphenoxy)-4H--1,2,6-thiadiazin-4-one], in the test on Pyricularia oryzae [1], the inhibition at 5 ppm was 33%, the inhibition at 10 ppm stood at 33%, the inhibition at 20 ppm was found to be 50% and the inhibition at 40 ppm amounted to 58%. For the same molecule, the pest or weed control at 150 ppm in the test with Phytophthora infestans came out at 50%. Besides, the pest or weed control at 150 ppm with Pyricularia oryzae [2] stood at 85%.

For `Cc1ccccc1Oc1nsnc(Cl)c1=O` [Compound 22, 3-chloro-5-(2-methylphenoxy)-4H--1,2,6-thiadiazin-4-one], in the test on Pyricularia oryzae [1], the inhibition at 5 ppm is 21%, the inhibition at 10 ppm turned out to be 33%, the inhibition at 20 ppm came to 54% and the inhibition at 40 ppm worked out at 63%. Moreover, the pest or weed control at 150 ppm in the test on Phytophthora infestans was found to be 0%. Further, the pest or weed control at 150 ppm in the test with Pyricularia oryzae [2] was found to be 0%.

With `Cc1ccc(Oc2nsnc(Cl)c2=O)c(C)c1` [Compound 23, 3-chloro-5-(2,4-dimethylphenoxy)-4H--1,2,6-thiadiazin-4-one], in the test on Pyricularia oryzae [1], the inhibition at 5 ppm amounted to 21%, the inhibition at 10 ppm came to 42%, the inhibition at 20 ppm is 46% and the inhibition at 40 ppm was 58%. Further, the pest or weed control at 150 ppm in the test with Phytophthora infestans was determined as 0%. The pest or weed control at 150 ppm in the test on Pyricularia oryzae [2] stood at 0%.

As for `Cc1cccc(C)c1Oc1nsnc(Cl)c1=O` [Compound 24, 3-chloro-5-(2,6-dimethylphenoxy)-4H--1,2,6-thiadiazin-4-one], in the test on Pyricularia oryzae [1], the inhibition at 5 ppm is 21%, the inhibition at 10 ppm stood at 42%, the inhibition at 20 ppm is 63% and the inhibition at 40 ppm came to 100%. In the test with Phytophthora infestans, the pest or weed control at 150 ppm was found to be 98%. For the same molecule, the pest or weed control at 150 ppm in the test with Pyricularia oryzae [2] was 95%.
